# Reference: the supplement of paper PMC10307832
# What was measured:
# Test in all cases: relative viability (nuclei count vs DMSO), 5 days (fraction); higher = more cells survive
# Sunitinib + Lapatinib = compound: CCN(CC)CCNC(=O)c1c(C)[nH]c(/C=C2\C(=O)Nc3ccc(F)cc32)c1C [Sunitinib] + CS(=O)(=O)CCNCc1ccc(-c2ccc3ncnc(Nc4ccc(OCc5cccc(F)c5)c(Cl)c4)c3c2)o1 [Lapatinib] (partner 2 µM)
# Outline: (§1)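 Each reported value is a median over duplicate plates. It expresses relative viability: treated-well nuclei count divided by vehicle-well nuclei count. Lung cancer cell lines in 1536-well plates were dosed by pin tool a day after seeding, alone with one drug or with a fixed anchor-drug dose plus five library-drug doses (not always all listed) in √10 steps, and nuclei were counted after 5 days.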
# Sunitinib + Olaparib = compound: CCN(CC)CCNC(=O)c1c(C)[nH]c(/C=C2\C(=O)Nc3ccc(F)cc32)c1C [Sunitinib] + O=C(c1cc(Cc2n[nH]c(=O)c3ccccc23)ccc1F)N1CCN(C(=O)C2CC2)CC1 [Olaparib] (partner 8 µM)
# Outline: as §1
# Sunitinib + Phenformin = compound: CCN(CC)CCNC(=O)c1c(C)[nH]c(/C=C2\C(=O)Nc3ccc(F)cc32)c1C [Sunitinib] + N=C(N)NC(=N)NCCc1ccccc1 [Phenformin] (partner 250 µM)
# Outline: as §1
# Sunitinib + Trametinib = compound: CCN(CC)CCNC(=O)c1c(C)[nH]c(/C=C2\C(=O)Nc3ccc(F)cc32)c1C [Sunitinib] + CC(=O)Nc1cccc(-n2c(=O)n(C3CC3)c(=O)c3c(Nc4ccc(I)cc4F)n(C)c(=O)c(C)c32)c1 [Trametinib] (partner 0.02 µM)
# Outline: as §1
Cell Line,relative viability (Sunitinib + Lapatinib; first compound 0.02 µM),relative viability (Sunitinib + Lapatinib; first compound 0.06325 µM),relative viability (Sunitinib + Lapatinib; first compound 0.2 µM),relative viability (Sunitinib + Lapatinib; first compound 0.6325 µM),relative viability (Sunitinib + Lapatinib; first compound 2 µM),relative viability (Sunitinib + Olaparib; first compound 0.02 µM),relative viability (Sunitinib + Olaparib; first compound 0.06325 µM),relative viability (Sunitinib + Olaparib; first compound 0.2 µM),relative viability (Sunitinib + Olaparib; first compound 0.6325 µM),relative viability (Sunitinib + Olaparib; first compound 2 µM),relative viability (Sunitinib + Phenformin; first compound 0.06325 µM),relative viability (Sunitinib + Phenformin; first compound 0.2 µM),relative viability (Sunitinib + Phenformin; first compound 0.6325 µM),relative viability (Sunitinib + Phenformin; first compound 2 µM),relative viability (Sunitinib + Trametinib; first compound 0.02 µM),relative viability (Sunitinib + Trametinib; first compound 0.06325 µM),relative viability (Sunitinib + Trametinib; first compound 0.2 µM),relative viability (Sunitinib + Trametinib; first compound 0.6325 µM),relative viability (Sunitinib + Trametinib; first compound 2 µM),relative viability (Sunitinib + Phenformin; first compound 0.02 µM)
NCI-H1792,0.885,0.952,1.07,0.809,0.923,0.491,0.371,0.98,0.404,0.384,0.381,0.351,0.418,0.31,0.463,0.417,0.533,0.442,0.377,–
NCI-H2405,1.03,1.21,1.18,1.18,–,0.855,0.965,0.88,0.96,0.93,0.391,0.406,0.395,0.406,0.59,0.582,0.662,0.672,0.628,0.399
BEN,0.651,0.754,0.675,0.673,0.618,1.02,1.03,1.14,1.08,0.956,0.266,0.267,0.275,0.265,0.9,–,1.06,1.08,1.05,0.277
RERF-LC-KJ,0.887,0.844,–,–,0.828,0.872,0.939,1.04,0.971,0.896,0.407,0.48,0.411,0.404,0.903,0.854,0.953,0.87,0.86,0.422
NCI-H2085,0.759,0.814,0.791,0.856,0.839,0.777,0.801,0.819,0.808,0.787,0.916,0.788,0.877,0.754,0.5,0.515,0.515,0.634,0.71,0.686
NCI-H661,0.433,0.453,0.527,0.582,0.448,0.716,0.739,0.733,0.711,0.773,0.31,0.27,0.264,0.265,0.513,0.597,0.703,0.63,0.649,0.263
201T,–,1.08,1.02,1.05,1.04,0.843,0.845,0.855,0.865,0.853,0.468,0.496,0.468,0.434,0.704,0.75,0.739,0.717,0.697,0.444
SK-MES-1,0.471,0.502,0.487,0.481,0.419,0.643,0.7,0.877,–,0.678,0.665,0.689,0.655,0.52,0.526,0.528,0.555,0.575,0.459,0.619
NCI-H1666,–,0.9,0.584,0.719,0.671,0.77,0.825,0.75,0.862,0.85,0.587,0.55,0.586,0.538,0.843,0.888,1.09,0.879,0.882,0.569
LU99A,0.869,1.12,0.925,1.14,1.01,0.267,0.27,0.271,0.321,0.295,0.906,1,0.803,0.782,0.477,0.562,0.554,0.552,0.424,0.727
LC-2-ad,0.916,1.11,1.07,0.904,0.581,0.68,0.746,0.749,0.729,0.825,0.574,0.643,0.61,0.573,0.894,0.951,0.896,0.825,0.722,0.526
NCI-H2009,0.929,1.34,0.995,–,1.18,0.675,0.739,0.717,0.799,0.778,0.501,0.461,0.465,0.429,0.242,0.332,0.274,0.25,0.181,0.446
NCI-H520,0.786,–,0.964,0.916,–,0.395,0.338,0.314,0.377,0.335,0.685,0.471,0.661,0.424,0.657,0.813,0.727,0.772,0.601,0.674
EKVX,0.213,0.227,0.193,0.233,0.241,0.941,0.991,0.952,0.957,0.97,0.234,0.236,0.256,0.248,0.314,0.357,0.412,0.345,0.298,0.242
NCI-H1355,1.01,1.04,1.12,1.07,1.06,0.786,0.812,0.904,0.818,0.712,0.453,0.473,0.482,0.432,0.44,0.438,0.567,0.437,0.376,0.441
SW 1573,1.19,1.3,1.31,1.14,–,0.488,0.56,0.622,0.522,0.511,0.449,0.368,0.386,0.306,0.522,0.626,0.515,0.729,0.582,0.338
NCI-H838,0.885,1.38,1.22,1.09,0.894,0.757,0.766,0.812,0.731,0.58,0.769,0.583,0.583,0.511,0.473,0.558,0.647,0.534,0.489,0.546
